Laboratory results published in ChEMBL document CHEMBL5649166, “RIP3 induces apoptosis independent of pronecrotic kinase activity” (Mol Cell, 2014).

Assays:
[1] = biological target: T1, Serine/threonine-protein kinase TBK1 (Homo sapiens) (UniProt Q9UHD2); assay: Inhibition of human TBK1 using myelin basic protein as substrate at 1 uM in presence of 32P-ATP by Hotspot assay relative to control; values are per cent of control
T1 sequence (whole entry): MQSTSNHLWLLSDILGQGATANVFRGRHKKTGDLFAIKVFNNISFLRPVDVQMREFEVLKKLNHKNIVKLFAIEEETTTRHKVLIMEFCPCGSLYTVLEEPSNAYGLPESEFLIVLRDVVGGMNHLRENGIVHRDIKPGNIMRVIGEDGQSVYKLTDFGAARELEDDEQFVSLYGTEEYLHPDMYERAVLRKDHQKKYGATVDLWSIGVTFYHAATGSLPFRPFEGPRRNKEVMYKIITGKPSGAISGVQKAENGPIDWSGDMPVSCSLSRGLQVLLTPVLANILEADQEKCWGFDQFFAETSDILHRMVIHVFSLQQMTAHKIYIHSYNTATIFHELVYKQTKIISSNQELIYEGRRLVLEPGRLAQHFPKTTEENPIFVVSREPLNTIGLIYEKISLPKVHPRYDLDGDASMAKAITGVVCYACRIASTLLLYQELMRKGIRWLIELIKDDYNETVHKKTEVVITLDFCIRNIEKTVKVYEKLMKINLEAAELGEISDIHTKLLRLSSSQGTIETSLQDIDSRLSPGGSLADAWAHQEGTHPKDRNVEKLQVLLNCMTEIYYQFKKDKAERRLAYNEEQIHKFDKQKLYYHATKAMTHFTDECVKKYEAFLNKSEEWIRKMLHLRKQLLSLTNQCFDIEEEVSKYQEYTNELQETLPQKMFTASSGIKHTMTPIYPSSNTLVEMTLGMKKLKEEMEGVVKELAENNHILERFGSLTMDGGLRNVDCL

[2] = biological target: Mitogen-activated protein kinase kinase kinase 20 (Homo sapiens) (UniProt Q9NYL2); assay: Inhibition of human ZAK/MLTK using myelin basic protein as substrate at 1 uM in presence of 32P-ATP by Hotspot assay relative to control; values are per cent of control
Chain of Mitogen-activated protein kinase kinase kinase 20 (Homo sapiens) (Q9NYL2 2-800 limits assumed): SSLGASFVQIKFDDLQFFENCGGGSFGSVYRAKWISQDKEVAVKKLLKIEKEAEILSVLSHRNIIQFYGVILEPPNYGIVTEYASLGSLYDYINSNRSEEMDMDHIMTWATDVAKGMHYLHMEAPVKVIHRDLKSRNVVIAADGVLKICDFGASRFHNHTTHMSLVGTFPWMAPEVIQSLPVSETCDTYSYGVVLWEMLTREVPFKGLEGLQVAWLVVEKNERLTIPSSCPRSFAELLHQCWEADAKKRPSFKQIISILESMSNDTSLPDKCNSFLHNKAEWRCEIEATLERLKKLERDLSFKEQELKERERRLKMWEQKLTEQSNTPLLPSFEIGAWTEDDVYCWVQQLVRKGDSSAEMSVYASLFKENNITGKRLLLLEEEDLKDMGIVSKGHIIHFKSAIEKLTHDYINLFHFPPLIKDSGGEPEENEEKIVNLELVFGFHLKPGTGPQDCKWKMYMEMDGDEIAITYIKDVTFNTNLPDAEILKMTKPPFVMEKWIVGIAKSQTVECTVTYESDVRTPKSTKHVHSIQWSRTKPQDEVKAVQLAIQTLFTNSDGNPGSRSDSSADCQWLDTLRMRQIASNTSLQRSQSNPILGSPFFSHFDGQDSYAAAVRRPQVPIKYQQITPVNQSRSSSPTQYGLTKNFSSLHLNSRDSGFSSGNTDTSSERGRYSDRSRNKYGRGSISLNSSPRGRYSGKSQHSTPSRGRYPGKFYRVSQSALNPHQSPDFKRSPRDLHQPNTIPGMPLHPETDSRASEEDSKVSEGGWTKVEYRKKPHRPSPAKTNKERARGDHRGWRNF

[3] = biological target: RAC-alpha serine/threonine-protein kinase (Homo sapiens) (UniProt P31749); assay: Inhibition of human AKT1 using KGSGSGRPRTSSFAEG as substrate at 1 uM in presence of 32P-ATP by Hotspot assay relative to control; values are per cent of control
Chain of RAC-alpha serine/threonine-protein kinase (Homo sapiens) (P31749 whole entry): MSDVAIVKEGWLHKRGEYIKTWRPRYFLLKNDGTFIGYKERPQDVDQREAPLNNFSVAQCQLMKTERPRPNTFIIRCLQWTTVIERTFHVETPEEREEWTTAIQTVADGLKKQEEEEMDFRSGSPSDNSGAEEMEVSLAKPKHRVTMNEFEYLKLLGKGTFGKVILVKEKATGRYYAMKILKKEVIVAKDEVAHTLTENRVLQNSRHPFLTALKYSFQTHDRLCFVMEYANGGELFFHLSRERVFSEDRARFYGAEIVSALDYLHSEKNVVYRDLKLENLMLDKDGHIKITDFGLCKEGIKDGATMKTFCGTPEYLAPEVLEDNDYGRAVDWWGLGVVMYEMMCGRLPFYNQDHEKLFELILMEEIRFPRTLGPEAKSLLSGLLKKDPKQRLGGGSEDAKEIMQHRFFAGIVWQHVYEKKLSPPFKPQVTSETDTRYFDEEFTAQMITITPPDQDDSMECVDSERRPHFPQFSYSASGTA

[4] = biological target: T2, Serine/threonine-protein kinase Chk1 (Homo sapiens) (UniProt O14757); assay: Inhibition of human CHK1 using KKKVSRSGLYRSPSMPENLNRPR as substrate at 1 uM in presence of 32P-ATP by Hotspot assay relative to control; values are per cent of control
T2 sequence (whole entry): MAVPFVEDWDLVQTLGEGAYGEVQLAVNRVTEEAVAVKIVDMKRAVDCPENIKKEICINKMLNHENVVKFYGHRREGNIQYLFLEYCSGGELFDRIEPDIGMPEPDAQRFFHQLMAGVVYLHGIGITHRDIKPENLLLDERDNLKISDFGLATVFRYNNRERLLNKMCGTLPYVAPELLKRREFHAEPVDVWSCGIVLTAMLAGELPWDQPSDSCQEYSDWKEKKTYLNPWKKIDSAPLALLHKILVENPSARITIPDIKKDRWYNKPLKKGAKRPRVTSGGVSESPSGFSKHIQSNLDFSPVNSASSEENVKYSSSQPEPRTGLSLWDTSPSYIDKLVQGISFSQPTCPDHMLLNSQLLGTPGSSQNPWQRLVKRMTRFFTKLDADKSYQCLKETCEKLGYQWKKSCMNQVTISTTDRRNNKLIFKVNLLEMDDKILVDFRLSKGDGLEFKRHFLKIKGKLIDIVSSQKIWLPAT

[5] = biological target: Vascular endothelial growth factor receptor 2 (Homo sapiens) (UniProt P35968); assay: Inhibition of human KDR/VEGFR2 using poly[Glu:Tyr] (4:1) as substrate at 1 uM in presence of 32P-ATP by Hotspot assay relative to control; values are per cent of control
Chain of Vascular endothelial growth factor receptor 2 (Homo sapiens) (P35968 whole entry): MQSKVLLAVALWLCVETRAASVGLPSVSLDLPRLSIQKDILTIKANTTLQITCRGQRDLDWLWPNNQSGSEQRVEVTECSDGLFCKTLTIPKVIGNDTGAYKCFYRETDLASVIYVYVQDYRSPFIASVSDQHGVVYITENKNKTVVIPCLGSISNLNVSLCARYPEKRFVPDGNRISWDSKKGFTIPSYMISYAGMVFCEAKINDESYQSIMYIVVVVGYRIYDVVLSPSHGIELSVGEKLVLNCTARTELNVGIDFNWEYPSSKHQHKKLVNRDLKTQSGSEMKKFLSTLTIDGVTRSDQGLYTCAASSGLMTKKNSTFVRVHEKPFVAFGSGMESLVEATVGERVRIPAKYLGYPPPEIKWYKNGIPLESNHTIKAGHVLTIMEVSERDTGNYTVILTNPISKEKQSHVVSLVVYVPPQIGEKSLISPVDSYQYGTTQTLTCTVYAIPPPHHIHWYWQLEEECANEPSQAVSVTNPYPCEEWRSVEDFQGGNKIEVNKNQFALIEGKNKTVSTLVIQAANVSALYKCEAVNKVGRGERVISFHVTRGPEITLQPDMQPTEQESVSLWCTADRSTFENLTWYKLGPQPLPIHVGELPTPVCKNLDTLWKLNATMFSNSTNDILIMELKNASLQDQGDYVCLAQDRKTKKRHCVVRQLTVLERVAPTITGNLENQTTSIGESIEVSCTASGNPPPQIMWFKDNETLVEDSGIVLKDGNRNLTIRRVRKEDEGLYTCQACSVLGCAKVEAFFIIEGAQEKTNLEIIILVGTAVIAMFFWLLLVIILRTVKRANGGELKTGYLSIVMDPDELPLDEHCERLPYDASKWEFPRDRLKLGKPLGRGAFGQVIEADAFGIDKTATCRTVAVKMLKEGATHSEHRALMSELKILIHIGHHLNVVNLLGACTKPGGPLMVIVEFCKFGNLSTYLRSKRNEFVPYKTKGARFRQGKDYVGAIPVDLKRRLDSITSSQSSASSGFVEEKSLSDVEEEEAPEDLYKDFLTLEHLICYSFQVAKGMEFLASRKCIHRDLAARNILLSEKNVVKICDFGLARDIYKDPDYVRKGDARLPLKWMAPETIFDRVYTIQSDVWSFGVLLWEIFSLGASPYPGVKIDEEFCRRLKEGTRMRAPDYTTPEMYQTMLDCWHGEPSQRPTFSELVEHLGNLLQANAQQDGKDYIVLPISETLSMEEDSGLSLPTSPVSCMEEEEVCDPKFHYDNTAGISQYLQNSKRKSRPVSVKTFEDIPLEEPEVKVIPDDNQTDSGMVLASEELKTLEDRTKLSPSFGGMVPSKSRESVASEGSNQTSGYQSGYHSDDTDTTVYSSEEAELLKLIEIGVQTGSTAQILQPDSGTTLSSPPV

[6] = biological target: T3, Tyrosine-protein kinase Tec (Homo sapiens) (UniProt P42680); assay: Inhibition of human TEC using poly[Glu:Tyr] (4:1) as substrate at 1 uM in presence of 32P-ATP by Hotspot assay relative to control; values are per cent of control
T3 sequence (whole entry): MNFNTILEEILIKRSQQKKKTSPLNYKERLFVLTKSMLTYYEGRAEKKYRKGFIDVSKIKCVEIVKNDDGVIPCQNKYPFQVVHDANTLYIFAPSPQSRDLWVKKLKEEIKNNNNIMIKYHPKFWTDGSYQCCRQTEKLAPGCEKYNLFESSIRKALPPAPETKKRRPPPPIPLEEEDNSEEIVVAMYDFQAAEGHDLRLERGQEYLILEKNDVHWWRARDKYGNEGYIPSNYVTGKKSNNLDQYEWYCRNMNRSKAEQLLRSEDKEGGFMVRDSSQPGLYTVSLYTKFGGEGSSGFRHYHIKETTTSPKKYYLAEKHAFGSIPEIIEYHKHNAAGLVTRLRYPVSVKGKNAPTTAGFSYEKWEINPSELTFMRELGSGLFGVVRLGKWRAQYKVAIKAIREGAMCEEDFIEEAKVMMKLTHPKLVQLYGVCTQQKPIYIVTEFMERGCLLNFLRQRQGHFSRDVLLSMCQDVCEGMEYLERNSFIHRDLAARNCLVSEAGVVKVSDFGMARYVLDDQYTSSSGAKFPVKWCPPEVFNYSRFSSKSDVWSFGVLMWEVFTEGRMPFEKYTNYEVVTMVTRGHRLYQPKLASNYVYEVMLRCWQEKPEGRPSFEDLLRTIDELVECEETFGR

[7] = biological target: Tyrosine-protein kinase Lyn (Homo sapiens) (UniProt P07948); assay: Inhibition of human LYN B using poly[Glu:Tyr] (4:1) as substrate at 1 uM in presence of 32P-ATP by Hotspot assay relative to control; values are per cent of control
Chain of Tyrosine-protein kinase Lyn (Homo sapiens) (P07948 2-512 limits assumed): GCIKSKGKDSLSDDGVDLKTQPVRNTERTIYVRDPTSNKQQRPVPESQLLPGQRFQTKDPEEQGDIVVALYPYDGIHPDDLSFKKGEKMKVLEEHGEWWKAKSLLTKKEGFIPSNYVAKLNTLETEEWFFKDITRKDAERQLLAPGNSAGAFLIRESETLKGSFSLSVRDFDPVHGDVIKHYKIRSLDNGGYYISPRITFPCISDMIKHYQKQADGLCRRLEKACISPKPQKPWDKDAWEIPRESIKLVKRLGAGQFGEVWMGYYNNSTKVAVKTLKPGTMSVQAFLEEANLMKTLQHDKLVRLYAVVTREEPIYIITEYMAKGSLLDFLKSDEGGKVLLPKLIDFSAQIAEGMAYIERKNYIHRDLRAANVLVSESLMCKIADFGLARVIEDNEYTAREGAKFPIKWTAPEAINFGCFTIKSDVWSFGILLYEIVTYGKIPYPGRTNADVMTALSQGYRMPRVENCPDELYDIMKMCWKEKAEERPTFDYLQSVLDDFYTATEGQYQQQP

Structure (SMILES) | residual activity [1] [%] | residual activity [2] [%] | residual activity [3] [%] | residual activity [4] [%] | residual activity [5] [%] | residual activity [6] [%] | residual activity [7] [%]
Cc1cc(-c2cnc(N)c3c(-c4ccc5scnc5c4)csc23)n(C)n1 | 105 | 21.2 | 98.9 | 100 | 59.8 | 89.7 | 14
CC(C)S(=O)(=O)c1ccc2nccc(Nc3ccc4scnc4c3)c2c1 | 96.1 | 94.5 | 97.6 | 100 | 17.4 | 99.8 | 74.6
CNC(=O)c1ccc2c(c1)ncn2-c1ccc(CC(=O)OC(C)(C)C)cc1 | 84.2 | 41.7 | 91.3 | 84.6 | 78.7 | 93.1 | 89.2
